Patent publication US4870183A, “Novel amino acid derivatives” (priority 1986, dated 1989)

What was measured:
plasma renin activity = target: T1, plasma renin activity (Callithrix jacchus, UniProt Q9TSZ1); assay: Renin inhibitory effect in plasma on common marmoset (plasma renin activity after oral dosing); type: in vivo; conditions: 30 mg/kg oral single dose, furosemide-treated conscious marmosets, control 43.16
T1 construct: from tissue; host or cells: plasma of furosemide-treated conscious male common marmosets
T1 sequence (Q9TSZ1 61-400): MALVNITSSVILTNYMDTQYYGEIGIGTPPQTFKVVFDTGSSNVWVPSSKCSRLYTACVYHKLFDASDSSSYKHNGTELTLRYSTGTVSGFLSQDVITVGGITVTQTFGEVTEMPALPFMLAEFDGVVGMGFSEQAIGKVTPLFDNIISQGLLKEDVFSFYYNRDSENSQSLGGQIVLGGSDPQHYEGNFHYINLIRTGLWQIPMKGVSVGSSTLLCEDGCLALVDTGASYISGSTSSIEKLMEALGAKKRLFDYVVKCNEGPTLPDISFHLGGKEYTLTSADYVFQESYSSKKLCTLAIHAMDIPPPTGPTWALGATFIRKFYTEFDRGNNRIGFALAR
Procedure: Renin Inhibitory Effect in Plasma on Common Marmoset
The experiment was carried out by using common marmoset as described in K. G. Hofbauer et al., CLINICAL AND EXPERIMENTAL HYPERTENSION, Vol. A5, Nos. 7 & 8 (1983), pages 1237-1247.
Furosemide was administered orally three times to common marmoset having a lower salt diet at 15 mg per kilogram per day every other day to create a high renin state. The experiment was carried out on the third day after the last furosemide dose.
Three conscious male marmosets weighing 310-460 g were placed into small restraining chair, and by using a catheter into the femoral artery, blood collecting was carried out at intervals of 60, 180 and 300 minutes.
Collected blood samples were centrifuged at 1200×g for 15 minutes at 4° C. Two hundred μl of the plasma was taken up and incubated for 60 minutes at 37° C., and the plasma renin activity was measured by radioimmunoassay using renin riabead kit (DAINABOT).
Compound A of this invention was dissolved in dilute hydrochloric acid, and administered orally at single dose of 30 mg/kg using catheter.

human renin = target: T2, human renin (Homo sapiens, UniProt P00797); assay: Inhibitory effect on human renin-sheep renin substrate reaction system in vitro; type: biochemical
T2 sequence (P00797 67-406): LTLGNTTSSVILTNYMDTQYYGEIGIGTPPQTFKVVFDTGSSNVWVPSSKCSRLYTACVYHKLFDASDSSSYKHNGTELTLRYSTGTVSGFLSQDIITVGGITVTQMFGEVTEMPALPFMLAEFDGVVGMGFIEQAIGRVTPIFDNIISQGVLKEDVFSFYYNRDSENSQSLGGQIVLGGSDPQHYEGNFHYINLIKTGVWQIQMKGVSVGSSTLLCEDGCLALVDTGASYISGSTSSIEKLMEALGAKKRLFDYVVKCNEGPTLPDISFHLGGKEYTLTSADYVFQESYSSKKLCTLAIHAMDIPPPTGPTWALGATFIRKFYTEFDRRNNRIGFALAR
Procedure: Inhibitory effect on human renin-sheep renin substrate reaction system in vitro
The mixture was incubated for 15 minutes on a water bath at 37° C., and the reaction mixture was allowed to stand for 5 minutes on a water bath at 100° C. to stop the reaction. After cooling, 200 μl of the solution was taken up and the amount of angiotensin I produced by the addition of renin was determined by radioimmunoassay using renin riabead kit (DAINABOT).
The inhibitory effect was calculated by the following equation.
As a control, the same procedure as above was carried out by using 50 μl of dimethyl sulfoxide alone in place of the 50 μl of dimethyl sulfoxide solution containing an amino acid compound of the present invention. [formula]

[1] = Hypotensive effect in marmoset (tail cuff blood pressure, high renin state); type: in vivo, common marmoset; conditions: 30 mg/kg oral, conscious high renin marmoset, control 99.7
Procedure: Hypotensive Effect in Marmoset
The experiment was carried out by using common marmoset as described in K. G. Hofbauer et al., Clinical and Experimental Hypertension, Vol. A5, Nos. 7 & 8 pages 1237-1247.
Furosemide was administered orally three times to common marmoset at 15 mg per kilogram per day every other day to create a high renin state. Blood pressure of conscious marmoset was measured on the third day after the last furosemide dose.
A conscious male marmoset weighing 340 g was placed into small restraining chair. Blood pressure was measured on the tail cuff method using pretismograph. Compound A of this invention was dissolved in dilute hydrochloric acid, and administered orally at 30 mg/kg by using a catheter.

[2] = target: T3, renin in human high renin plasma (Homo sapiens, UniProt P00797); assay: Renin inhibitory effect in a human high renin plasma; type: biochemical
T3 construct: from tissue; host or cells: human high renin plasma
T3 sequence (P00797 67-406): T2 sequence (P00797 67-406)
Procedure: Renin Inhibitory Effect in a Human High Renin Plasma
Two hundred μl of the mixture was placed on an ice bath, at 4° C., and remaining mixture (800 μl) was incubated for 60 minutes at 37° C. on a water bath. Two hundred μl of the incubated remaining mixture was chilled immediately on an ice bath, and the amount (A) of angiotensin I produced was determined by radioimmunoassay using renin riabead kit (DAINABOT).
The amount (B) of angiotensin I in the mixture placed on an ice bath at 4° C. was also determined by radioimmunoassay.
As a control, the same procedure as above was carried out by using 100 μl of dimethyl sulfoxide alone in place of 100 μl of dimethyl sulfoxide solution containing an amino acid compound of the present invention.
The net amount was estimated as the difference between A and B.
The inhibitory effect was calculated by the following equation. [formula]

PRA (plasma renin activity; 60 minutes after administration): 30.35 ng angiotensin I/ml/hr
PRA (plasma renin activity; 180 minutes after administration): 18.89 ng angiotensin I/ml/hr
PRA (plasma renin activity; 300 minutes after administration): 22.93 ng angiotensin I/ml/hr
IC50 (human renin): 9.4 nM
IC50 [2]: 130 nM
SMILES: CC(C)OC(=O)C(O)[C@H](CC1CCCCC1)NC(=O)[C@H](Cc1c[nH]cn1)NC(=O)C(Cc1ccccc1F)Cc1ccccc1F (mixture of isomers) [Compound A, (2RS, 3S)-3-{N-[Bis(2-fluorobenzyl)acetyl]-L-histidyl}amino-4-cyclohexyl-2-hydroxybutyric acid isopropyl ester]
Blood pressure ([1]; 0.5 hours after administration): 94.7 mmHg
Blood pressure ([1]; 1 hour after administration): 86.2 mmHg
Blood pressure ([1]; 2 hours after administration): 89.7 mmHg
Blood pressure ([1]; 3 hours after administration): 86.2 mmHg
Blood pressure ([1]; 5 hours after administration): 85.7 mmHg
